Experimental data as given in article PMC5813016 (Nature Communications, 2018).
“And” between values parts separate entries of the source, which are not always exact repeats. Equal entries are not always repeated.

Columns and labels:
[1] = Equilibrium dialysis, unbound fraction in rat brain homogenate; assay type: in vitro ADME; conditions: read-out: unbound fraction in rat brain homogenate (fu,b)
cynomolgus monkeys = assay: Monkey spontaneous eye blink rate (EBR); assay type: in vivo, Macaca fasicularis; conditions: cynomolgus monkey; for EBR response on repeated daily dosing (3 days): n = 3, A-77636 s.c., PF-2334 oral 0.6 + 0.3 mg/kg
Procedure: Increase in spontaneous EBR has been previously shown with D1 agonists and partial agonists. To confirm the specificity of the response in our particular assay set up for D1 activation, we verified that the D1 receptor antagonist SCH-39166 fully blocks the increased eye blink response of non-catechol full D1 agonist that is a close structural analog of the compounds in this paper (data not shown). All procedures involving animals were conducted with approval of the Pfizer Institutional Animal Care and Use Committee (Groton, CT) and compliant with the regulations and standards of the Animal Welfare Act (9CFR2, 9CFR3). Three male Cynomolgus macaques (Macaca fasicularis) of Mauritian origin, 7–10 years old, SPF for CHV-1, SIV, STLV1 and SRV 1, 2, 5 were used. Animals were exposed to 12 h light/dark cycle (lights on 6:00 AM – 6:00 PM). […] EBRS were recorded from chaired animals for 2 min at 10 min intervals by a trained observer through direct visual observation who was blinded to experimental conditions. Animals were chaired at approximately 7:30 AM. After vehicle or compound administration, eye blinks were recorded during the following intervals: from 10 to 50 min (0–1 h), 130 to 170 min (2–3 h), 310 to 350 min (5–6 h). Animals were returned to their home cages between two consecutive sessions and after the final recording of the day. Blood samples (1 ml) were collected from the femoral vein at 1 and 5 h after the first dose to quantitate plasma compound levels. […] A77636 was dissolved in 0.9% sterile saline, formulated fresh prior to administration, and given once per day for 3 days. […] Vehicle control was administered on day 0.
EBR data were first converted to blinks per minute. EBR were averaged by binning into 3 periods: Period 1 (0–1 h after the first dose) EBR = mean of 10, 20, 30, 40, and 50 min recordings; Period 2 (2–3 h after the first dose) EBR = mean of 130, 140, 150, 160, and 170 min recordings; Period 3 (5–6 h after the first dose) EBR = mean of 310, 320, 330, 340, and 350 min recordings. For Fig. 5c EBR data were averaged by binning data from periods 1 through 3 as daily EBR. Data from each animal was then normalized to their respective Day 1 EBR and expressed as percent of Day 1 EBR for each drug. EBR data were analyzed with SAS® 9.4 (SAS Institute Inc. Cary, NC) using a mixed linear model (Mixed Procedure) for repeated measures. The model included treatment, day, time period, and their interactions as fixed effects, and animal and animal-by-day interaction as random effects. A first order autoregressive model was used for longitudinal covariance structure. Differences between least squares means across days, overall and for each time period, were tested and adjusted for multiple comparisons via Tukey method. […]

[2] = Equilibrium dialysis, unbound fraction in monkey plasma; assay type: in vitro ADME; conditions: read-out: unbound fraction in monkey plasma (fu,p)
[3] = Plasma concentrations in monkey EBR study; assay type: in vivo, cynomolgus monkey; conditions: mean ± SD
Procedure: For both compounds, blood collections occurred on day 1, day 2, and day 3. All blood samples were placed on wet ice until centrifugation. Following centrifugation, the plasma was transferred to polypropylene tubes and stored frozen at –20 °C to –80 °C until analysis.

human D1R I117A mutant = assay: cAMP assay, D1R mutant I117A; conditions: relative to wild-type D1R; each table line is one experiment (Experiment # 1-6)
[4] = Rat pharmacokinetic studies; assay type: in vivo, Wistar Hannover rat; conditions: for plasma concentration profile after oral administration: compared with SKF-38393; for clearance / Vd / bioavailability / half-life: male, Wistar Hannover, plasma; for clearance / Vd: iv; for Vd: read-out: Vdss; for bioavailability: oral bioavailability; for half-life: read-out: t½ (converted)
Procedure: Rat pharmacokinetic studies were conducted at BioDuro, Pharmaceutical Product Development, Inc. (Shanghai, China). Wistar Hannover rats (227–293 gram weight) were obtained from Vital River Laboratories (China). All animal studies were conducted in accordance with the Pfizer Institutional Animal Care and Use Committee (Groton, CT), using protocols approved by Pfizer PDM′s Global BA Committee (2009). Jugular vein-cannulated male Wistar Hanover rats were maintained on a 12 h light/dark cycle for a minimum of three days in a temperature-controlled and humidity-controlled environment with free access to food and water. Individual animals (n = 2 or 3 per dose/route) were administered a single dose of compound by either intravenous injection via tail vein or oral gavage based on body weight. […] The PF-6142 intravenous dose (1 mg/kg) was formulated in saline acidified with three molar equivalents of 1 N hydrochloric acid and the PF-6142 oral dose (5 mg/kg) was formulated in 0.5% methylcellulose. […] Formulations were agitated until all of the test article was dissolved. […] From each rat, serial blood samples were collected via jugular vein cannula prior to dose administration and at the following time points post-dose: 0.033 (i.v. only), 0.083, 0.25, 0.5, 1, 2, 4, 7, and 24 h. […] All blood samples were placed on wet ice until centrifugation. Following centrifugation, the plasma was transferred to polypropylene tubes and stored frozen at either −20 °C to −80 °C until analysis. Urine was collected from all intravenous-dosed rats into collection tubes from the collection intervals of 0–7 h and 7–24 h post-dose. […] All urine samples were stored at −80 °C until analysis. All samples were processed for quantitation of compound concentrations using protein precipitation methodology followed by analysis using liquid chromatography-tandem mass spectrometry (LC-MS/MS). […] The pharmacokinetic parameters (including those in Supplementary Table 3) were computed by non-compartmental analysis[61] using Watson Bioanalytical LIMS version 7.4 (Thermo Fischer Scientific, CA).

human D1R N292A mutant = assay: cAMP assay, D1R mutant N292A; conditions: relative to wild-type D1R; each table line is one experiment (Experiment # 1-6)
human D1R W318A mutant = assay: cAMP assay, D1R mutant W318A; conditions: relative to wild-type D1R; each table line is one experiment (Experiment # 1-6)
human D1R S188I mutant = assay: cAMP assay, D1R mutant S188I; conditions: relative to wild-type D1R; each table line is one experiment (Experiment # 1-6)
human D1R W321A mutant = assay: cAMP assay, D1R mutant W321A; conditions: relative to wild-type D1R; each table line is one experiment (Experiment # 1-6)
[5] = 1 mg/kg/day subcutaneous dose, Day 1, 1 h post-dose
[6] = 1 mg/kg/day subcutaneous dose, Day 1, 6 h post-dose
[7] = 1 mg/kg/day subcutaneous dose, Day 2, 1 h post-dose
[8] = 1 mg/kg/day subcutaneous dose, Day 2, 6 h post-dose
[9] = 1 mg/kg/day subcutaneous dose, Day 3, 1 h post-dose
[10] = 1 mg/kg/day subcutaneous dose, Day 3, 6 h post-dose
[11] = 0.9 mg/kg/day split oral dose, Day 1, 5 h post-dose
[12] = 0.9 mg/kg/day split oral dose, Day 2, 1 h post-dose
[13] = 0.9 mg/kg/day split oral dose, Day 2, 5 h post-dose
[14] = 0.9 mg/kg/day split oral dose, Day 3, 1 h post-dose
[15] = 0.9 mg/kg/day split oral dose, Day 3, 5 h post-dose

Row | fraction unbound [1] | fraction unbound [2] | Compound | EBR response on repeated daily dosing (3 days) (cynomolgus monkeys) | fold shift of cAMP functional potency, I117A (EC50 mutant/ EC50 WT) (human D1R I117A mutant) | plasma concentration profile after oral administration [4] | clearance [4] | Vd [4] | bioavailability [4] | half-life [4] | fold shift of cAMP functional potency, N292A (EC50 mutant/ EC50 WT) (human D1R N292A mutant) | fold shift of cAMP functional potency, W318A (EC50 mutant/ EC50 WT) (human D1R W318A mutant) | fold shift of cAMP functional potency, S188I (EC50 mutant/ EC50 WT) (human D1R S188I mutant) | fold shift of cAMP functional potency, W321A (EC50 mutant/ EC50 WT) (human D1R W321A mutant) | other results
1 | 0.0012 | 0.044 | NC[C@@H]1O[C@H](C23CC4CC(CC(C4)C2)C3)Cc2c1ccc(O)c2O [A-77636, reference compound] | progressively and significantly attenuated with each dosing day |  |  |  |  |  |  |  |  |  |  | increase of spontaneous EBR over baseline after single dose (cynomolgus monkeys; A-77636 s.c. (0.1 mg/kg as printed elsewhere in the source), PF-2334 oral 0.6 mg/kg + 0.3 mg/kg 8 h later): 2–3 fold; Cp (total plasma concentration) [3, 5]: 79.3 ± 11.4 ng/mL; Cp,u (unbound plasma concentration) [3, 5]: 10.6 ± 1.5 nM; Cp (total plasma concentration) [3, 6]: 34.8 ± 3.5 ng/mL; Cp,u (unbound plasma concentration) [3, 6]: 4.6 ± 0.5 nM; Cp (total plasma concentration) [3, 7]: 73.1 ± 13.8 ng/mL; Cp,u (unbound plasma concentration) [3, 7]: 9.8 ± 1.8 nM; Cp (total plasma concentration) [3, 8]: 46.3 ± 11.7 ng/mL; Cp,u (unbound plasma concentration) [3, 8]: 6.2 ± 1.6 nM; Cp (total plasma concentration) [3, 9]: 85.5 ± 19.0 ng/mL; Cp,u (unbound plasma concentration) [3, 9]: 11.4 ± 2.5 nM; Cp (total plasma concentration) [3, 10]: 40.6 ± 2.8 ng/mL; Cp,u (unbound plasma concentration) [3, 10]: 5.4 ± 0.4 nM
2 |  |  | Cc1cc(Oc2cccc(O)c2O)ccc1-c1c(C)ncnc1C [PF-1437] |  | 15.2 |  |  |  |  |  |  |  |  |  | 
3 | 0.021 | 0.04 | Cc1n[nH]c(=O)c(C)c1-c1ccc(Oc2nccc3occc23)cc1F [PF-2334] | sustained after multiple days of dosing |  | more sustained plasma concentration profiles | 20.8 mL/min/kg | 1.2 L/kg | 57.2% | 48 min |  |  |  |  | Cp (total plasma concentration) ([3]; 0.9 mg/kg/day split oral dose (0.6 + 0.3 mg/kg 8 h later), Day 1, 1 h post-dose): 41.9 ± 9.4 ng/mL; Cp,u (unbound plasma concentration) ([3]; 0.9 mg/kg/day split oral dose, Day 1, 1 h post-dose): 4.8 ± 1.1 nM; Cp (total plasma concentration) [3, 11]: 47.0 ± 13.9 ng/mL; Cp,u (unbound plasma concentration) [3, 11]: 5.4 ± 1.6 nM; Cp (total plasma concentration) [3, 12]: 71.4 ± 20.1 ng/mL; Cp,u (unbound plasma concentration) [3, 12]: 8.1 ± 2.3 nM; Cp (total plasma concentration) [3, 13]: 99.0 ± 36.3 ng/mL; Cp,u (unbound plasma concentration) [3, 13]: 11.3 ± 4.1 nM; Cp (total plasma concentration) [3, 14]: 89.5 ± 49.4 ng/mL; Cp,u (unbound plasma concentration) [3, 14]: 10.2 ± 5.6 nM; Cp (total plasma concentration) [3, 15]: 106 ± 40 ng/mL; Cp,u (unbound plasma concentration) [3, 15]: 12.1 ± 4.5 nM
4 |  |  | Cc1cc(Oc2nccc3occc23)ccc1-c1c(C)ncc2nccn12 [PF-6142] |  | 9.8 | more sustained plasma concentration profiles | 42.5 mL/min/kg | 2.4 L/kg | 85.4% | 66 min | 23.7 and 30.6 | 16.3 and 20.4 | 10.6 and 8.5 and 10.1 and 6.7 | 22.7 and 21.1 | 
5 |  |  | Cc1cc(Oc2nccc3occc23)ccc1-c1c(C)ncnc1C [PF-8871] |  |  |  |  |  |  |  | 30.7 | 12.5 | 5.8 and 10.8 and 8.7 | 21.4 | 
